According to ChEMBL document CHEMBL3885861, “Open TG-GATES”:

Species on record: Rattus norvegicus
Assay: Open TG-GATES - Regimen: Single
Format: toxicity, organism-based, Sprague-Dawley
Parameters: regimen Single, gender Male, age 6 weeks
Conditions: in vivo, po, 100 mg/kg, route gavage, dose level Low; for APTT / Bas / Eos / Fbg / Hb / Ht / Lym / MCH / MCHC / MCV / Mono / Neu / PT / Plat / RBC / Ret / WBC: tissue Blood; for KIDNEY_L / KIDNEY_R / KIDNEY_TOTAL: tissue Kidney; for LIVER: tissue Liver; for A/G / ALP / ALT / AST / BUN / CRE / Ca / Cl / DBIL / GLC / IP / K / LDH / Na / PL / RALB / TBIL / TC / TG / TP / gamma-GTP: tissue Plasma

`CNC(=C[N+](=O)[O-])NCCSCc1ccc(CN(C)C)o1` [RANITIDINE] showed a TERMINAL_BW (3 h) of 216.8 g, an APTT (3 h) of 19.1 s and a Bas (3 h) of 0%. The Eos (3 h) was 1%, the Fbg (3 h) was 225.4 mg/dL and the Hb (3 h) was 13.7 g/dL. For the same compound, the Ht (3 h) was 39.7%, the Lym (3 h) was 76.8% and the MCH (3 h) was 22.3 pg. It also gave an MCHC (3 h) of 34.5%, an MCV (3 h) of 64.5 fL and a Mono (3 h) of 2.8%. For the same compound, the Neu (3 h) was 15.2%, the PT (3 h) was 12.1 s and the Plat (3 h) was 118 x10_4/uL. It also gave an RBC (3 h) of 616 x10_4/ul, a Ret (3 h) of 7.4% and a WBC (3 h) of 87.6 x10_2/uL. For the same compound, the KIDNEY_L (3 h) was 1 g, the KIDNEY_R (3 h) was 1 g and the KIDNEY_TOTAL (3 h) was 2 g. It also gave an LIVER (3 h) of 10.3 g, an A/G (3 h) of 1.6 and an ALP (3 h) of 1082.6 IU/L. The ALT (3 h) was 38.2 IU/L, the AST (3 h) was 66.6 IU/L and the BUN (3 h) was 11.4 mg/dL. It also gave a CRE (3 h) of 0.4 mg/dL, a Ca (3 h) of 10.7 mg/dL and a Cl (3 h) of 103.8 meq/L. The DBIL (3 h) was 0.078 mg/dL, the GLC (3 h) was 190.6 mg/dL and the IP (3 h) was 8.7 mg/dL. For the same compound, the K (3 h) was 3.7 meq/L, the LDH (3 h) was 153 IU/L and the Na (3 h) was 141 meq/L. It also gave a PL (3 h) of 137.8 mg/dL, an RALB (3 h) of 3.4 g/dL and a TBIL (3 h) of 0.1 mg/dL. For the same compound, the TC (3 h) was 73.2 mg/dL, the TG (3 h) was 57.4 mg/dL and the TP (3 h) was 5.6 g/dL. It also gave a gamma-GTP (3 h) of 1.2 IU/L, a TERMINAL_BW (6 h) of 216.3 g and an APTT (6 h) of 17.7 s. It also gave a Bas (6 h) of 0%, an Eos (6 h) of 0.6% and a Fbg (6 h) of 229.6 mg/dL. The Hb (6 h) was 12.9 g/dL, the Ht (6 h) was 37.1% and the Lym (6 h) was 73.2%. For the same compound, the MCH (6 h) was 22 pg, the MCHC (6 h) was 34.8% and the MCV (6 h) was 63.2 fL. The Mono (6 h) was 2.2%, the Neu (6 h) was 19.6% and the PT (6 h) was 12.3 s. The Plat (6 h) was 118.8 x10_4/uL, the RBC (6 h) was 588 x10_4/ul and the Ret (6 h) was 7.3%. The WBC (6 h) was 96.3 x10_2/uL, the KIDNEY_L (6 h) was 1 g and the KIDNEY_R (6 h) was 1 g. It also gave a KIDNEY_TOTAL (6 h) of 2 g, an LIVER (6 h) of 9.3 g and an A/G (6 h) of 1.7. The ALP (6 h) was 929.4 IU/L, the ALT (6 h) was 34 IU/L and the AST (6 h) was 66.4 IU/L. It also gave a BUN (6 h) of 9.6 mg/dL, a CRE (6 h) of 0.4 mg/dL and a Ca (6 h) of 10.5 mg/dL. For the same compound, the Cl (6 h) was 103.4 meq/L, the DBIL (6 h) was 0.074 mg/dL and the GLC (6 h) was 198 mg/dL. It also gave an IP (6 h) of 8.6 mg/dL, a K (6 h) of 3.8 meq/L and an LDH (6 h) of 168.8 IU/L. It also gave a Na (6 h) of 140.4 meq/L, a PL (6 h) of 134.2 mg/dL and an RALB (6 h) of 3.4 g/dL. It also gave a TBIL (6 h) of 0.1 mg/dL, a TC (6 h) of 73 mg/dL and a TG (6 h) of 52.8 mg/dL. For the same compound, the TP (6 h) was 5.4 g/dL and the gamma-GTP (6 h) was 1.4 IU/L.
